Data taken from article PMC5835287, “Synthesis, Characterization, and BSA-Binding Studies of Novel Sulfonated Zinc-Triazine Complexes” (Bioinorganic Chemistry and Applications, 2018).
Counter-ions that a name gives are not always drawn.

Molecular target: T1, bovine serum albumin (BSA) (Bos taurus, UniProt P02769)
T1 construct: gene ALB
Test: UV absorbance titration at […] nm (binding constant Kb from […]/(A-A0) vs […]/[C] plot)
Settings: read-out: UV absorbance titration at 280 nm (binding constant Kb from 1/(A-A0) vs 1/[C] pl) (converted)

T1 sequence (P02769 25-607): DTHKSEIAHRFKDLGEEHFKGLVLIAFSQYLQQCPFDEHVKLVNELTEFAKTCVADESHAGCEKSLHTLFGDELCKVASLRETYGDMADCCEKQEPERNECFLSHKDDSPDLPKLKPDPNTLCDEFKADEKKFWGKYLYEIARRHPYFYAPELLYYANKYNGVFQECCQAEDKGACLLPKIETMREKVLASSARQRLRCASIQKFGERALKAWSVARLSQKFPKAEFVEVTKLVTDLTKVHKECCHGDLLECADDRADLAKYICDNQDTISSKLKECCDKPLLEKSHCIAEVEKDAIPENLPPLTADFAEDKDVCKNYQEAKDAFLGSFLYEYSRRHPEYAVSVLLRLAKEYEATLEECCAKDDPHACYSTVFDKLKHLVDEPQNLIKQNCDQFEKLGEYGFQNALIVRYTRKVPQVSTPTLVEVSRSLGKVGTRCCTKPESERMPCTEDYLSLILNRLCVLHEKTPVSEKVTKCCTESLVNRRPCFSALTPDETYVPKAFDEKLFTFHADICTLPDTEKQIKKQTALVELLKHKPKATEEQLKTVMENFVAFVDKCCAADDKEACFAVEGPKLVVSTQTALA

- Kd: 32.4 µM
Structure (SMILES): O=S(=O)(O)c1ccc(-c2nnc(-c3ccccn3)nc2-c2ccc(S(=O)(=O)O)o2)o1 [L1, 3-(2-pyridyl)-5,6-di(2-furyl)-1,2,4-triazine-5′,5″-disulfonic acid disodium salt]
